The source of these data is patent US7192606B2, “Drugs for treating viral infections” (priority 2004, dated 2007).

A short description of series [1]: Neutral Red Uptake Assay (toxicity). The conditions noted are these: human, stationary HFF cells.
The test system of series [2] is cowpox virus. The conditions noted are these: cited from earlier work.
Series [3] concerns cowpox virus. The series is described as follows: microbe, parasite or virus in culture. It counts as cell-based. The following applies: HFF.
The subject of series [4] is cowpox virus. On the set-up: species or system BALB/c mice. The conditions noted are these: mouse, in vivo.
A further series concerns vaccinia virus. It counts as cell-based.
Series [5] concerns cowpox virus. It counts as cell-based.
In another series the test system is stationary HFF cells. The experiment in a line: Neutral Red Uptake Assay (toxicity). The conditions noted are these: Neutral Red Uptake.
The next series deals with Caco-2 cells. The experiment in a line: Caco-2 cell permeability assay. The following applies: for A side % Remaining at 2 hrs: Caco-2, A side; for B side % Remaining at 2 hrs: Caco-2, B side; for A-B: Caco-2, apical to basolateral; for A-B / B-A: 25 microM, 2 hours, 37° C.; for B-A: Caco-2, basolateral to apical. A general note: Passage across Caco-2 layers is used to estimate intestinal permeability.

A short description of series [6]: Caco-2 cell permeability assay. The conditions noted are these: human, Caco-2.
Series [7] relates to variola virus (smallpox) isolates. It counts as cell-based.
The nature of series [8]: Parallel Artificial Membrane Permeability Assay (PAMPA)-MS. The conditions noted are these: hexadecane membrane layer, 4 hr, 50 microM in PBS, LC-MS. On the technique in general: In PAMPA a lipid-coated filter parts donor from acceptor wells.
Series [9] has as its system cowpox virus. It counts as cell-based. This is another data set of the same source.

Values after ≈ are worked out from the molar mass of the structure shown. Where two headings read alike, the source gives them in different places. Bounds are passed on as bounds.

By EC90 is commonly meant the concentration needed for an effect of 90%. Usually efflux ratio stands for a quotient of directional permeabilities that is used to spot active efflux.

`Nc1ccn(C[C@@H](CO)OCP(=O)(O)O)c(=O)n1` [CDV, reference compound] displayed a CC50 in series [1] of more than 100 µg/mL. Besides, the “active concentration in these cells” value with cowpox virus [2] was “about 12.0 microgram/mL”. The compound also registered an EC90 with cowpox virus [3] of 18.7 µg/mL (≈ 67 µM).
For “Sodium N,N^1-(Tricyclo[3.3.1.1^3,7]dec-1-yl)imidodisulfamide [Example 11]”, the “Lung titer on Day 3” value with cowpox virus [4] turned out to be 6.6±1.3. In the series with vaccinia virus, the EC50 result is reported as “EC50: 0.04 microgram/mL;” and the EC90 entry was “EC90: 0.11 microgram/mL;”. Also, in the series on cowpox virus [5], the EC50 result is listed as “EC50: 0.50 microgram/mL;” and the EC90 entry is listed as “EC90: 2.10 microgram/mL;”. In the series on stationary HFF cells, the CC50 was 87.6 microgram/mL.
Take `CC(C)NCC(O)COc1cccc2ccccc12` (stereo not drawn) [Propranolol, reference compound]: in the series with Caco-2 cells, the “A side % Remaining at 2 hrs” value turned out to be 68.60%, the “B side % Remaining at 2 hrs” value stood at 88.38%, the A-B was found to be 39.03 and the B-A turned out to be 72.42. Besides, in [6], the efflux ratio at 2 h, 25 microM is 1.9.
Take `O=S(=O)(NC12CC3CC(CC(C3)C1)C2)NS(=O)(=O)NC12CC3CC(CC(C3)C1)C2` [Example 1, N,N^1-Bis(tricyclo[3.3.1.1^3,7]dec-1-yl)imidodisulfamide]: the “average EC50” value in series [7] was found to be 0.10 microgram/mL. Moreover, in the series with Caco-2 cells, the “A side % Remaining at 2 hrs” value is on record as 85.05%, the “B side % Remaining at 2 hrs” value is given as 105.39%, the A-B amounted to 9.07 and the B-A is given as 18.85. Moreover, the Ratio in the series with Caco-2 cells (Caco-2, B-A / A-B) worked out at 2.1. Further, the CC50 with uninfected cells is listed as 43.0 microgram/mL. Moreover, the permeability in [8] amounted to 0.43 ×10⁻⁶ cm/s. The “concentration up to which cell monolayers were healthy” value in the series on monkey (Vero) cells is not below 30 microgram/mL. For the same compound, the CC50 with stationary HFF cells was 78.9 microgram/mL. Further, in the series on cowpox virus [9], the “plaques at 1.0 microgram/mL” value is “tiny relative to the untreated ones” and the “plaques at 3.0 microgram/mL” value is reported as “nearly completely eliminated”. The EC50 in the series on cowpox virus [9] (3 days) is reported as 2.0 microgram/mL.
